Reference: ChEMBL document CHEMBL1201862, “PubChem BioAssay data set” (2004)
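1) Cells in 96-well plates. 2) Compound, 48 h, 5 concentrations. 3) Linear interpolation between surrounding doses. 4) Unreached endpoint = highest concentration. At the GI50, growth is halved.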 The source made the active and inactive calls. Rule as the data show it: active = GI50 up to about 1.1 µM and inactive = higher.

Assays:
Test in all cases: NCI-60 cell line screen, 48 h
DU-145 = test system: DU-145
SF-295 = test system: SF-295
NCI-H23 = test system: NCI-H23
T47D = test system: T47D
MOLT-4 = test system: MOLT-4
EKVX = test system: EKVX
PC-3 = test system: PC-3
SK-MEL-5 = test system: SK-MEL-5
SN12C = test system: SN12C
CAKI-1 = test system: CAKI-1
SK-MEL-28 = test system: SK-MEL-28
HOP-92 = test system: HOP-92
LOX IMVI = test system: LOX IMVI
MDA-N = test system: MDA-N
OVCAR-8 = test system: OVCAR-8
SF-539 = test system: SF-539
COLO 205 = test system: COLO 205
RPMI-8226 = test system: RPMI-8226
NCI/ADR-RES = test system: NCI/ADR-RES
SR = test system: SR

Row | SMILES | GI50 (DU-145) | GI50 (SF-295) | GI50 (NCI-H23) | GI50 (T47D) | GI50 (MOLT-4) | GI50 (EKVX) | GI50 (PC-3) | GI50 (SK-MEL-5) | GI50 (SN12C) | GI50 (CAKI-1) | GI50 (SK-MEL-28) | GI50 (HOP-92) | GI50 (LOX IMVI) | GI50 (MDA-N) | GI50 (OVCAR-8) | GI50 (SF-539) | GI50 (COLO 205) | GI50 (RPMI-8226) | GI50 (NCI/ADR-RES) | GI50 (SR)
1 | Cc1cc(N(CCC#N)S(=O)(=O)c2ccccc2)ccc1/C=N/c1ccc(C(=O)O)cc1 | > 100 µM (inactive) | 29.1 µM (inactive) | 16.1 µM (inactive) | > 100 µM (inactive) | 6.98 µM (inactive) | 17.9 µM (inactive) | > 100 µM (inactive) | 13.8 µM (inactive) | 6.21 µM (inactive) | 2.23 µM (inactive) | 15.3 µM (inactive) | > 100 µM (inactive) | 13.2 µM (inactive) | > 100 µM (inactive) | 7.71 µM (inactive) | 15.2 µM (inactive) | 6.41 µM (inactive) |  |  | 
2 | CCOC(=O)c1cc2c([N+](=O)[O-])c(N)ccc2s1 | > 100 µM (inactive) | > 100 µM (inactive) | > 100 µM (inactive) | > 100 µM (inactive) | > 100 µM (inactive) | 57 µM (inactive) | > 100 µM (inactive) | > 100 µM (inactive) | > 100 µM (inactive) | > 100 µM (inactive) | > 100 µM (inactive) | > 100 µM (inactive) | > 100 µM (inactive) | > 100 µM (inactive) | > 100 µM (inactive) | > 100 µM (inactive) | > 100 µM (inactive) | > 100 µM (inactive) | > 100 µM (inactive) | 
3 | CC(C)(C)OC(=O)NCC(=O)NC1C/C(=N\O)c2sccc21 (stereo not drawn) | > 100 µM (inactive) | > 100 µM (inactive) | > 100 µM (inactive) | > 100 µM (inactive) | 0.621 µM (active) | > 100 µM (inactive) | > 100 µM (inactive) | > 100 µM (inactive) | > 100 µM (inactive) | > 100 µM (inactive) | > 100 µM (inactive) |  | > 100 µM (inactive) | > 100 µM (inactive) | > 100 µM (inactive) | > 100 µM (inactive) | > 100 µM (inactive) |  | > 100 µM (inactive) | > 100 µM (inactive)
4 | O=c1c2cccnc2cc(-c2ccccc2)n1CCO | > 100 µM (inactive) | > 100 µM (inactive) | > 100 µM (inactive) | > 100 µM (inactive) | > 100 µM (inactive) | > 100 µM (inactive) | > 100 µM (inactive) | > 100 µM (inactive) | > 100 µM (inactive) |  | > 100 µM (inactive) |  | > 100 µM (inactive) | > 100 µM (inactive) | > 100 µM (inactive) |  | > 100 µM (inactive) | > 100 µM (inactive) | > 100 µM (inactive) | > 100 µM (inactive)
5 | CS(=O)(=O)O.[Ag] | 17.1 µM (inactive) | 34.2 µM (inactive) | 23.2 µM (inactive) | 2.15 µM (inactive) | 2.32 µM (inactive) | 21.9 µM (inactive) | 14.2 µM (inactive) | 5.3 µM (inactive) | 19.1 µM (inactive) | 17.8 µM (inactive) | 18.4 µM (inactive) | 2.14 µM (inactive) | 3.09 µM (inactive) | 7.1 µM (inactive) | 31.6 µM (inactive) | 17.3 µM (inactive) | 2.16 µM (inactive) | 2.49 µM (inactive) | 29.8 µM (inactive) | 
6 | COC(=O)c1c(C)cccc1/C=C1/Cc2c(C)cccc2C1=O | > 100 µM (inactive) | > 100 µM (inactive) | > 100 µM (inactive) | 50.8 µM (inactive) | > 100 µM (inactive) | > 100 µM (inactive) | > 100 µM (inactive) | 9.93 µM (inactive) | > 100 µM (inactive) | > 100 µM (inactive) | > 100 µM (inactive) | 58.1 µM (inactive) | 20.5 µM (inactive) | > 100 µM (inactive) | > 100 µM (inactive) | > 100 µM (inactive) | > 10 µM (inactive) | 3.44 µM (inactive) | > 100 µM (inactive) | 
7 | COc1cccc(/C=C2\S/C(=N/Nc3nc(C)c(C)s3)NC2=O)c1O | > 100 µM (inactive) | > 100 µM (inactive) | > 100 µM (inactive) | 19 µM (inactive) | 49.3 µM (inactive) | 37 µM (inactive) |  | 50.2 µM (inactive) | > 100 µM (inactive) | > 100 µM (inactive) | > 100 µM (inactive) | > 100 µM (inactive) | 95.7 µM (inactive) | > 100 µM (inactive) | 36.6 µM (inactive) | > 100 µM (inactive) | > 100 µM (inactive) |  | > 100 µM (inactive) | 
8 | C=CC1(C)CCC2C(=CCC3C(C)(COC4OC(C(=O)O)C(O)C(O)C4O)C(O)CCC23C)C1.C=CC1(C)CCC2C(=CCC3C2(C)CC(O)C(O)C3(C)COC2OC(C(=O)O)C(O)C(O)C2O)C1 (stereo not drawn) | > 100 µM (inactive) | 70.1 µM (inactive) | > 100 µM (inactive) | > 100 µM (inactive) | 13.3 µM (inactive) | > 100 µM (inactive) | 80.4 µM (inactive) | > 100 µM (inactive) | > 100 µM (inactive) | > 100 µM (inactive) | > 100 µM (inactive) | > 100 µM (inactive) | > 100 µM (inactive) | > 100 µM (inactive) | > 100 µM (inactive) | > 100 µM (inactive) | > 100 µM (inactive) | > 100 µM (inactive) |  | 44.6 µM (inactive)
9 | CN(C)CCCN1C(=S)N(CCCN(C)C)c2c3ccccc3nc3c([N+](=O)[O-])ccc1c23 | 6.44 µM (inactive) | 8.38 µM (inactive) | 9.08 µM (inactive) | 15 µM (inactive) | 5.58 µM (inactive) | 5.5 µM (inactive) | 5.83 µM (inactive) | 4.55 µM (inactive) | 4.15 µM (inactive) | 5.96 µM (inactive) | 13.6 µM (inactive) | 5.33 µM (inactive) | 4.42 µM (inactive) | 7.46 µM (inactive) | 5.31 µM (inactive) | 5.04 µM (inactive) | 1.71 µM (inactive) | 6.81 µM (inactive) | 6.95 µM (inactive) | 
10 | CCOC(=O)/C(C#N)=C/c1ccc2c(-c3c(OCC)ccc4cc(/C=C(\C#N)C(=O)OCC)ccc34)c(OCC)ccc2c1 | > 100 µM (inactive) | > 100 µM (inactive) | > 100 µM (inactive) | > 100 µM (inactive) | > 100 µM (inactive) | > 100 µM (inactive) | > 100 µM (inactive) | > 100 µM (inactive) | > 100 µM (inactive) | > 100 µM (inactive) | > 100 µM (inactive) | > 100 µM (inactive) | > 100 µM (inactive) | > 100 µM (inactive) | > 100 µM (inactive) |  | > 100 µM (inactive) | > 100 µM (inactive) | > 100 µM (inactive) | 
11 | COc1ccc(/C(CCl)=C(\Nc2ccccc2)c2ccc(OC)c(OC)c2)cc1OC | > 100 µM (inactive) | 78 µM (inactive) | 49.3 µM (inactive) | 27.7 µM (inactive) | 28.6 µM (inactive) | > 100 µM (inactive) | 65 µM (inactive) | 71.9 µM (inactive) | > 100 µM (inactive) | > 100 µM (inactive) | > 100 µM (inactive) | 55.1 µM (inactive) | > 100 µM (inactive) | > 100 µM (inactive) | > 100 µM (inactive) | > 100 µM (inactive) | > 100 µM (inactive) | 68.2 µM (inactive) | > 100 µM (inactive) | 
12 | COc1cc2nc3n(c(=O)c2cc1OC)-c1ccc([N+](=O)[O-])cc1C3=O | 34.6 µM (inactive) | 83.2 µM (inactive) | 56.6 µM (inactive) | 0.891 µM (active) | 27.3 µM (inactive) | 36.9 µM (inactive) | 41.5 µM (inactive) | 50.8 µM (inactive) | 66.7 µM (inactive) | 5.06 µM (inactive) | 3.15 µM (inactive) | > 100 µM (inactive) | 38.7 µM (inactive) | 30.5 µM (inactive) | 57.9 µM (inactive) | > 100 µM (inactive) | > 100 µM (inactive) | 28.7 µM (inactive) | 89.5 µM (inactive) | 
13 | O=C1/C(=C\c2ccc(O)cc2)CCC/C1=C/c1ccc(Cl)c(Cl)c1 | 3.19 µM (inactive) | 2.65 µM (inactive) | 3.13 µM (inactive) | 11.5 µM (inactive) | 1.82 µM (inactive) | 7.69 µM (inactive) | 3.57 µM (inactive) | 7.11 µM (inactive) | 2.73 µM (inactive) | 4.82 µM (inactive) | 4.1 µM (inactive) | 15.6 µM (inactive) | 1.47 µM (inactive) | 2.48 µM (inactive) |  |  | 1.76 µM (inactive) | 2.44 µM (inactive) | 2.03 µM (inactive) | 
14 | C/C1=C\[C@H](C)C[C@H](C)OC(=O)[C@H](C)NC(=O)[C@@H](Cc2ccc(O)c(Br)c2)N(C)C(=O)[C@H](C)NC(=O)[C@@H](C)C1 | 0.155 µM (active) | 0.0578 µM (active) | 0.462 µM (active) | 0.282 µM (active) | 0.3 µM (active) | 0.0652 µM (active) | 0.0335 µM (active) | 0.0127 µM (active) | 0.401 µM (active) | 0.0149 µM (active) | 0.00659 µM (active) | 0.0533 µM (active) | 0.00533 µM (active) | 0.0982 µM (active) | 0.147 µM (active) | 0.053 µM (active) | 0.00728 µM (active) | 0.0295 µM (active) | 0.126 µM (active) | 
15 | O=C1CCCCC/C1=C\c1ccc(Cl)cc1 | 39.2 µM (inactive) | 22 µM (inactive) | 31.6 µM (inactive) | 37.3 µM (inactive) | 26.2 µM (inactive) | 44.3 µM (inactive) | 19.9 µM (inactive) | 13.9 µM (inactive) | 35.3 µM (inactive) | 37.8 µM (inactive) | 49.3 µM (inactive) | 35.7 µM (inactive) | 28.9 µM (inactive) | 28.6 µM (inactive) |  |  | 18.2 µM (inactive) | 25.4 µM (inactive) |  | 23.1 µM (inactive)
